From patent US12384808B2, “Modulators of TNF-α activity” (Forward Therapeutics, Inc., priority 2022, dated 2025) come the findings set out here.

Each structure is given as a SMILES string. Bounds are passed on as bounds.

For the first assay, the target named is TNFα (Homo sapiens, UniProt P01375). In words: TNFα Induced HEK Blue Cellular Assay.
Chain of TNFα (P01375 77-233 limits assumed): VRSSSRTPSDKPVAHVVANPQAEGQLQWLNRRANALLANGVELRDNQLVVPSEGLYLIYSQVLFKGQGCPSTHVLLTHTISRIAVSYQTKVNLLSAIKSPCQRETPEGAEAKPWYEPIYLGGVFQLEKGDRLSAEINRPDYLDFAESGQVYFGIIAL
Settings: not given
The format is cell-based. The method, boiled down: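 IC50 fitted with a 4-parameter logistic model from % inhibition, normalised to DMSO controls with and without stimulation. Readout: QUANTI-Blue SEAP at 620 nm after 24 h, 37 °C exposure to TNFα (100 pg/ml final) and test compound at […]–0.5 nM final.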
As for `[2H]C([2H])([2H])N1C(=O)c2cccc(OC(F)F)c2[C@H]2C[C@@H]1c1nc3ccc(-c4ccc(CP(=O)(OC)OC)cc4)cc3n12` [Example 83, dimethyl (4-((7R,14R)-1-(difluoromethoxy)-6-(methyl-d3)-5-oxo-5,6,7,14-tetrahydro-7,14-methanobenzo[f]benzo[4,5]imidazo[1,2-a][1,4]diazocin-11-yl)benzyl)phosphonate], the 50% inhibitory concentration (IC50) is under 100 nM.

Still in this assay, the particulars now being: HEK Blue TNFα reporter cells, TNFα 100 pg/ml, 24 hrs at 37° C., secreted alkaline phosphatase (QUANTI-Blue) read at 620 nm; read-out: IC50 value.
For `[2H]C([2H])([2H])N1C(=O)c2cccc(OC(F)F)c2[C@H]2C[C@@H]1c1nc3ccc(-c4c(F)cc(P(C)(C)=O)cc4F)cc3n12` [Example 63, (7R,14R)-1-(difluoromethoxy)-11-(4-(dimethylphosphoryl)-2,6-difluorophenyl)-6-(methyl-d3)-6,7-dihydro-7,14-methanobenzo[f]benzo[4,5]imidazo[1,2-a][1,4]diazocin-5(14H)-one], the IC50 is under 100 nM.

For `[2H]C([2H])([2H])N1C(=O)c2cccc(OC(F)F)c2[C@H]2C[C@@H]1c1nc3cc(F)c(-c4ccc(P(C)(C)=O)cc4)cc3n12` [Example 64, (7R,14R)-1-(difluoromethoxy)-11-(4-(dimethylphosphoryl)phenyl)-10-fluoro-6-(methyl-d3)-6,7-dihydro-7,14-methanobenzo[f]benzo[4,5]imidazo[1,2-a][1,4]diazocin-5(14H)-one], the half-inhibitory concentration (IC50) was in the range of 100 to 1000 nM. `[2H]C([2H])([2H])N1C(=O)c2cccc(OC(F)F)c2[C@H]2C[C@@H]1c1nc3ccc(-c4ccc(P(C)(C)=O)cc4)cc3n12` [Example 65, (7R,14R)-1-(difluoromethoxy)-11-(4-(dimethylphosphoryl)phenyl)-6-(methyl-d3)-6,7-dihydro-7,14-methanobenzo[f]benzo[4,5]imidazo[1,2-a][1,4]diazocin-5(14H)-one]: the IC50 was under 100 nM. For the compound `CP(C)(=O)c1ccc(-c2cc3c(cc2F)nc2n3[C@@H]3C[C@H]2NC(=O)c2cccc(OC(F)F)c23)cc1F` [Example 66, (7R,14R)-1-(difluoromethoxy)-11-(4-(dimethylphosphoryl)-3-fluorophenyl)-10-fluoro-6,7-dihydro-7,14-methanobenzo[f]benzo[4,5]imidazo[1,2-a][1,4]diazocin-5(14H)-one], the IC50 was under 100 nM.

`[2H]C([2H])([2H])N1C(=O)c2cccc(OC(F)F)c2[C@H]2C[C@@H]1c1nc3ccc(-c4ccc(CP(C)(C)=O)cc4F)cc3n12` [Example 67, (7R,14R)-1-(difluoromethoxy)-11-(4-((dimethylphosphoryl)methyl)-2-fluorophenyl)-6-(methyl-d3)-6,7-dihydro-7,14-methanobenzo[f]benzo[4,5]imidazo[1,2-a][1,4]diazocin-5(14H)-one]: the IC50 is under 100 nM. On the same count and under the same terms, under `[2H]C([2H])([2H])N1C(=O)c2cccc(OC(F)F)c2[C@H]2C[C@@H]1c1nc3ccc(-c4ccc(CP(C)(C)=O)c(F)c4)cc3n12` [Example 68, (7R,14R)-1-(difluoromethoxy)-11-(4-((dimethylphosphoryl)methyl)-3-fluorophenyl)-6-(methyl-d3)-6,7-dihydro-7,14-methanobenzo[f]benzo[4,5]imidazo[1,2-a][1,4]diazocin-5(14H)-one] stands under 100 nM. With `[2H]C([2H])([2H])N1C(=O)c2cccc(OC(F)F)c2[C@H]2C[C@@H]1c1nc3ccc(-c4cc(F)c(CP(C)(C)=O)c(F)c4)cc3n12` [Example 69, (7R,14R)-1-(difluoromethoxy)-11-(4-((dimethylphosphoryl)methyl)-3,5-difluorophenyl)-6-(methyl-d3)-6,7-dihydro-7,14-methanobenzo[f]benzo[4,5]imidazo[1,2-a][1,4]diazocin-5(14H)-one], the IC50 was under 100 nM. Consider `[2H]C([2H])([2H])N1C(=O)c2cccc(OC(F)F)c2[C@H]2C[C@@H]1c1nc3ccc(-c4ccc(CP(C)(C)=O)cc4)cc3n12` [Example 70, (7R,14R)-1-(difluoromethoxy)-11-(4-((dimethylphosphoryl)methyl)phenyl)-6-(methyl-d3)-6,7-dihydro-7,14-methanobenzo[f]benzo[4,5]imidazo[1,2-a][1,4]diazocin-5(14H)-one], for which the IC50 is under 100 nM. Consider `[2H]C([2H])([2H])N1C(=O)c2cccc(O)c2[C@H]2C[C@@H]1c1nc3ccc(-c4cc(F)c(P(C)(C)=O)cc4F)cc3n12` [Example 71, (7R,14R)-11-(4-(dimethylphosphoryl)-2,5-difluorophenyl)-1-hydroxy-6-(methyl-d3)-6,7-dihydro-7,14-methanobenzo[f]benzo[4,5]imidazo[1,2-a][1,4]diazocin-5(14H)-one], for which the IC50 was 10000 to 30000 nM. On the same count and under the same terms, under `CP(C)(=O)Cc1ccc(-c2ccc3nc4n(c3c2)[C@@H]2C[C@H]4NC(=O)c3cccc(OC(F)F)c32)cc1F` [Example 72, (7R,14R)-1-(difluoromethoxy)-11-(4-((dimethylphosphoryl)methyl)-3-fluorophenyl)-6,7-dihydro-7,14-methanobenzo[f]benzo[4,5]imidazo[1,2-a][1,4]diazocin-5(14H)-one] stands under 100 nM; under `CN1C(=O)c2cccc(OC(F)F)c2[C@H]2C[C@@H]1c1nc3ccc(-c4cc(F)c(CP(C)(C)=O)cc4F)cc3n12` [Example 73, (7R,14R)-1-(difluoromethoxy)-11-(4-((dimethylphosphoryl)methyl)-2,5-difluorophenyl)-6-methyl-6,7-dihydro-7,14-methanobenzo[f]benzo[4,5]imidazo[1,2-a][1,4]diazocin-5(14H)-one], under 100 nM; under `[2H]C([2H])([2H])N1C(=O)c2cccc(OC)c2[C@H]2C[C@@H]1c1nc3ccc(-c4cc(F)c(P(C)(C)=O)cc4F)cc3n12` [Example 74, (7R,14R)-11-(4-(dimethylphosphoryl)-2,5-difluorophenyl)-1-methoxy-6-(methyl-d3)-6,7-dihydro-7,14-methanobenzo[f]benzo[4,5]imidazo[1,2-a][1,4]diazocin-5(14H)-one], 100 to 1000 nM. Take `[2H]C([2H])([2H])N1C(=O)c2cccc(OCC)c2[C@H]2C[C@@H]1c1nc3ccc(-c4cc(F)c(P(C)(C)=O)cc4F)cc3n12` [Example 75, (7R,14R)-11-(4-(dimethylphosphoryl)-2,5-difluorophenyl)-1-ethoxy-6-(methyl-d3)-6,7-dihydro-7,14-methanobenzo[f]benzo[4,5]imidazo[1,2-a][1,4]diazocin-5(14H)-one]: the IC50 was under 100 nM. Take `[2H]C([2H])([2H])N1C(=O)c2cccc(OC(F)F)c2[C@H]2C[C@@H]1c1nc3ccc(-c4ccc(CP(C)(C)=O)c(F)c4F)cc3n12` [Example 76, (7R,14R)-1-(difluoromethoxy)-11-(4-((dimethylphosphoryl)methyl)-2,3-difluorophenyl)-6-(methyl-d3)-6,7-dihydro-7,14-methanobenzo[f]benzo[4,5]imidazo[1,2-a][1,4]diazocin-5(14H)-one]: the half-maximal inhibitory concentration (IC50) was under 100 nM. As for `CN1C(=O)c2cccc(OC(F)F)c2[C@H]2C[C@@H]1c1nc3ccc(-c4cc(F)c(CP(C)(C)=O)c(F)c4)cc3n12` [Example 77, (7R,14R)-1-(difluoromethoxy)-11-(4-((dimethylphosphoryl)methyl)-3,5-difluorophenyl)-6-methyl-6,7-dihydro-7,14-methanobenzo[f]benzo[4,5]imidazo[1,2-a][1,4]diazocin-5(14H)-one], the concentration for half-maximal inhibition (IC50) is under 100 nM.

Regarding `[2H]C([2H])([2H])N1C(=O)c2cccc(OC(F)F)c2[C@H]2C[C@@H]1c1nc3cc(F)c(-c4ccc(CP(C)(C)=O)c(F)c4)cc3n12` [Example 78, (7R,14R)-1-(difluoromethoxy)-11-(4-((dimethylphosphoryl)methyl)-3-fluorophenyl)-10-fluoro-6-(methyl-d3)-6,7-dihydro-7,14-methanobenzo[f]benzo[4,5]imidazo[1,2-a][1,4]diazocin-5(14H)-one], the concentration for half-maximal inhibition (IC50) is under 100 nM. Turning to `CN1C(=O)c2cccc(OC(F)F)c2[C@H]2C[C@@H]1c1nc3ccc(-c4ccc(CP(C)(C)=O)c(F)c4)cc3n12` [Example 79, (7R,14R)-1-(difluoromethoxy)-11-(4-((dimethylphosphoryl)methyl)-3-fluorophenyl)-6-methyl-6,7-dihydro-7,14-methanobenzo[f]benzo[4,5]imidazo[1,2-a][1,4]diazocin-5(14H)-one], the IC50 is under 100 nM. In the case of `CN1C(=O)c2cccc(OC(F)F)c2[C@H]2C[C@@H]1c1nc3ccc(-c4ccc(CP(C)(C)=O)cc4F)cc3n12` [Example 80, (7R,14R)-1-(difluoromethoxy)-11-(4-((dimethylphosphoryl)methyl)-2-fluorophenyl)-6-methyl-6,7-dihydro-7,14-methanobenzo[f]benzo[4,5]imidazo[1,2-a][1,4]diazocin-5(14H)-one], the IC50 was under 100 nM.

Regarding `CP(C)(=O)Cc1c(F)cc(-c2ccc3nc4n(c3c2)[C@@H]2C[C@H]4NC(=O)c3cccc(OC(F)F)c32)cc1F` [Example 81, (7R,14R)-1-(difluoromethoxy)-11-(4-((dimethylphosphoryl)methyl)-3,5-difluorophenyl)-6,7-dihydro-7,14-methanobenzo[f]benzo[4,5]imidazo[1,2-a][1,4]diazocin-5(14H)-one], the IC50 is under 100 nM. For the compound `CP(C)(=O)Cc1cc(F)c(-c2ccc3nc4n(c3c2)[C@@H]2C[C@H]4NC(=O)c3cccc(OC(F)F)c32)cc1F` [Example 82, (7R,14R)-1-(difluoromethoxy)-11-(4-((dimethylphosphoryl)methyl)-2,5-difluorophenyl)-6,7-dihydro-7,14-methanobenzo[f]benzo[4,5]imidazo[1,2-a][1,4]diazocin-5(14H)-one], the half-maximal inhibitory concentration (IC50) is 100 to 1000 nM. Turning to `[2H]C([2H])([2H])N1C(=O)c2cccc(OC(F)F)c2[C@H]2C[C@@H]1c1nc3ccc(-c4ccc(C(O)P(C)(C)=O)cc4)cc3n12` (stereo partly drawn) [Example 84, (7R,14R)-1-(difluoromethoxy)-11-(4-((dimethylphosphoryl)(hydroxy)methyl)phenyl)-6-(methyl-d3)-6,7-dihydro-7,14-methanobenzo[f]benzo[4,5]imidazo[1,2-a][1,4]diazocin-5(14H)-one], the IC50 was under 100 nM.
